Calls of active or inactive are those of the source. No cut-off for these calls is given here.
Columns and labels:
NCI-H1975 [1] = experiment: Inhibition of clonogenicity in human NCI-H1975 cells assessed as inhibition of colony formation at 0.1 uM incubated for 14 days by crystal violet staining based analysis; type: functional, cell-based; settings: time 14.0 day
[2] = tested on: Epidermal growth factor receptor (Homo sapiens), P00533 [L858R,T790M]; experiment: Inhibition of EGFR L858R/T790M mutant in osimertinib-resistant human NCI-H1975 cells assessed as inhibition of EGF-induced Akt phosphorylation at Ser473 residue pretreated with compound for 4 hrs followed by incubation with EGF for 10 mins by western blot analysis; type: cell-based; settings: time 250.0 min
[3] = tested on: Epidermal growth factor receptor (Homo sapiens), P00533 [L858R,T790M]; experiment: Inhibition of EGFR L858R/T790M mutant in human NCI-H1975 cells assessed as inhibition of EGF-induced EGFR phosphorylation at Tyr1068 residue at 1 uM pretreated with compound for 4 hrs followed by incubation with EGF for 10 mins by western blot analysis; type: cell-based; settings: time 250.0 min
Mus musculus [4] = experiment: In vivo inhibition of EGFR L858R/T790M mutant in ip dosed NCI-H1975 cells xenografted BALB/c mouse assessed as inhibition of ERK-1/2 phosphorylation in tumor by immunoblot analysis; type: functional, organism-based; settings: dose 5-20 mg/kg/day
[5] = Cytotoxicity against human A-431 cells harboring wild type EGFR assessed as reduction in cell viability measured after 72 hrs by MTT assay; type: toxicity, cell-based
Mus musculus [6] = experiment: In vivo inhibition of EGFR L858R/T790M mutant in NCI-H1975 cells xenografted BALB/c mouse assessed as inhibition of ERK-1/2 phosphorylation in tumor at 20 mg/kg/day, ip by immunoblot analysis; type: functional, organism-based
[7] = Cmax in Sprague-Dawley rat at 1 mg/kg, iv by LC-MS analysis; type: ADME, organism-based; parameters: dose 1 mg/kg, route iv; settings: in vivo
NCI-H1975 [8] = experiment: Antitumor activity against N-(3-((6-Fluoro-2-((4-(4-methylpiperazin-1-yl)phenyl)amino)quinazolin-4-yl)amino)phenyl)acrylamide-resistant human NCI-H1975 cells xenografted in BALB/c mouse assessed as […] in TUNEL-positive cells in tumor at 20 mg/kg/day, ip in presence of ACK1 inhibitor, dasatinib by TUNEL assay; type: functional, organism-based
[9] = biological target: T1, Epidermal growth factor receptor (Homo sapiens, UniProt P00533); experiment: Inhibition of wild type EGFR in human A-431 cells assessed as inhibition of EGF-induced EGFR phosphorylation at Tyr1068 residue at 0.1 to 10 uM pretreated with compound for 4 hrs followed by incubation with EGF for 10 mins by western blot analysis; type: toxicity, cell-based; settings: a-431, 4.167 h, dose 0.1-10 µM, time 250 min
[10] = biological target: T1, Epidermal growth factor receptor; experiment: Inhibition of wild type EGFR in human A-431 cells assessed as inhibition of EGF-induced Akt phosphorylation at Ser473 residue at 0.1 to 10 uM pretreated with compound for 4 hrs followed by incubation with EGF for 10 mins by western blot analysis; type: toxicity, cell-based; settings: a-431, 4.167 h, dose 0.1-10 µM, time 250 min
[11] = biological target: T1, Epidermal growth factor receptor; experiment: Inhibition of human wild type partial length EGFR (R669 to V1011 residues) expressed in bacterial expression system by KINOMEscan analysis; type: toxicity
NCI-H1975 [12] = experiment: Antiproliferative activity against N-(3-((6-Fluoro-2-((4-(4-methylpiperazin-1-yl)phenyl)amino)quinazolin-4-yl)amino)phenyl)acrylamide-resistant human NCI-H1975 cells assessed as reduction in cell viability at compound:Bosutinib concentration ratio of 3:1 to 1:3 measured after 72 hrs in presence of ACK1 inhibitor, Bosutinib by MTT assay; type: functional, cell-based
[13] = Toxicity in BALB/c mouse xenografted with human NCI-H1975 cells assessed as change in heart morphological changes at 5 to 20 mg/kg/day, ip by hematoxylin-eosin staining based analysis; type: organism-based; settings: in vivo, dose 5-20 mg/kg/day
[14] = tested on: Epidermal growth factor receptor (Homo sapiens), P00533 [L858R,T790M]; experiment: Inhibition of human partial length EGFR (R669 to V1011 residues) L858R/T790M mutant expressed in mammalian expression system assessed as residual activity at 1 uM by KINOMEscan analysis
[15] = tested on: Epidermal growth factor receptor (Homo sapiens), P00533 [L858R]; experiment: Inhibition of human partial length EGFR (R669 to V1011 residues) L858R mutant expressed in bacterial expression system assessed as residual activity at 1 uM by KINOMEscan analysis
[16] = tested on: Epidermal growth factor receptor (Homo sapiens), P00533 [L858R,T790M]; experiment: Covalent binding affinity to EGFR L858R/T790M mutant (unknown origin) assessed as enzyme-compound complex formation at protein to compound concentration ratio of 1:4 incubated for 1 hr by LC-MS analysis
[17] = tested on: Epidermal growth factor receptor (Homo sapiens), P00533 [UNDEFINED MUTATION]; experiment: Inhibition of human EGFR exon del19 mutant assessed as residual activity at 1 uM by KINOMEscan analysis
[18] = biological target: T2, Tyrosine-protein kinase Tec (Homo sapiens, UniProt P42680); experiment: Inhibition of human wild type partial length TEC kinase (L341 to D620 residues) expressed in bacterial expression system by KINOMEscan analysis
T2 sequence (P42680 whole entry): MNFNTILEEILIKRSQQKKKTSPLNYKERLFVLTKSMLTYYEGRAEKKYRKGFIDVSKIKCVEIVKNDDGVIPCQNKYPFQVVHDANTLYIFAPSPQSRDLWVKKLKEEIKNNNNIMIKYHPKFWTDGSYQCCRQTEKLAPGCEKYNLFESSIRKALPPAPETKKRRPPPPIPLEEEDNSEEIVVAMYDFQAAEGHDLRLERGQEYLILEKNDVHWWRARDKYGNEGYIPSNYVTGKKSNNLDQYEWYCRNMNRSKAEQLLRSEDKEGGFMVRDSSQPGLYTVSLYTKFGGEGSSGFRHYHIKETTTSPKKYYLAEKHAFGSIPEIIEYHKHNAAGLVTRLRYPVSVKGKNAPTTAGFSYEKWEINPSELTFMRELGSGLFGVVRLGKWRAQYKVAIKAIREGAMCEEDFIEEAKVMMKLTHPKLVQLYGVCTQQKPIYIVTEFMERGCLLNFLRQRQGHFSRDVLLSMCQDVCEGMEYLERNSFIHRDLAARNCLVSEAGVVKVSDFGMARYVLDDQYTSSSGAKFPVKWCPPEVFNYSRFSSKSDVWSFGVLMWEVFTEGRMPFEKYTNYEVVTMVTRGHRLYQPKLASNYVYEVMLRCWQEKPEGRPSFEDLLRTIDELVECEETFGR

[19] = biological target: Epidermal growth factor receptor (Homo sapiens, UniProt P00533, EX19DEL); experiment: Inhibition of human EGFR exon del19 mutant by KINOMEscan analysis
[20] = tested on: Epidermal growth factor receptor (Homo sapiens), P00533 [L858R,T790M]; experiment: Inhibition of EGFR L858R/T790M mutant in N-(3-((6-Fluoro-2-((4-(4-methylpiperazin-1-yl)phenyl)amino)quinazolin-4-yl)amino)phenyl)acrylamide-resistant human NCI-H1975 cells assessed as inhibition of EGF-induced AKT phosphorylation at Ser473 residue pretreated with compound and ACK1 inhibitor, Bosutinib for 4 hrs followed by incubation with EGF for 10 mins by western blot analysis; type: cell-based; settings: time 250.0 min
A-431 = experiment: Inhibition of clonogenicity in human A-431 cells assessed as inhibition of colony formation at 0.1 to 10 uM incubated for 14 days by crystal violet staining based analysis; type: toxicity, cell-based; settings: a-431, 336 h, dose 0.1-10 µM, time 14 day
NCI-H1975 [21] = experiment: Antitumor activity against N-(3-((6-Fluoro-2-((4-(4-methylpiperazin-1-yl)phenyl)amino)quinazolin-4-yl)amino)phenyl)acrylamide-resistant human NCI-H1975 cells xenografted in BALB/c mouse assessed as inhibition of tumor volume at 20 mg/kg/day, ip in presence of ACK1 inhibitor, dasatinib; type: functional, organism-based
Mus musculus [22] = organism: Mus musculus; settings: BALB/c, dose 10.0 mg/kg/day, route po
Mus musculus [23] = organism: Mus musculus; settings: BALB/c, dose 10.0 mg/kg/day, route po; remark: listed apart in the source

Compound: C=CC(=O)Nc1cccc(Nc2nc(Nc3ccc(N4CCN(C)CC4)cc3)nc3ccc(F)cc23)c1
- inhibition (NCI-H1975 [1]): Active
- inhibition [2]: inactive
- inhibition [3]: Active
- inhibition (Mus musculus [4]): Dose-Dependent Effect
- IC50 at 72 h [5]: 2490 nM
- inhibition (Mus musculus [6]): Active
- Cmax [7]: 650 ng/mL
- Activity (NCI-H1975 [8]): Active
- inhibition (INH) [9]: Not Active
- inhibition (INH) [10]: Not Active
- IC50 [11]: 1290 nM
- Activity (NCI-H1975 [12]): Active
- Activity [13]: Non-Toxic
- Activity [14]: 1%
- Activity [15]: 1%
- Activity [16]: Active
- Activity [17]: 0%
- IC50 [18]: 518 nM
- IC50 [19]: 1.3 nM
- inhibition [20]: Active
- Activity (A-431): Non-Toxic
- Activity (NCI-H1975 [21]): Active

Compound: C=CC(=O)Nc1cc(Nc2nccc(-c3cn(C)c4ccccc34)n2)c(OC)cc1N(C)CCN(C)C [OSIMERTINIB]
- inhibition (Mus musculus [22]): Active
- inhibition (Mus musculus [23]): Active

From ChEMBL document CHEMBL5380860, “Design, Synthesis, and Antitumor Activity of Potent and Selective EGFR L858R/T790M Inhibitors and Identification of a Combination Therapy to Overcome Acquired Resistance in Models of Non-small-cell Lung Cancer” (J Med Chem, 2023)
